# Calls of active or inactive are those of the source.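 The calls were made as follows: active = mean IC50 at or below 10 µM; inactive = the rest.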
# System: H9c2 cardiomyocytes, H2O2 protection, ATPLite viability, 2 h
# Assay: H2O2-induced H9c2 cell death suppression – ATPLite luminescence, set 2, dose response (AID 602211);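 also: potency is for protection so actives keep ATP signal up against peroxide killing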
row,Structure (SMILES),IC50
1,CCOC(=O)c1ccccc1OCc1cc(/C=N/NC(=O)c2cccnc2)ccc1OC,> 79 µM (inactive)
2,CC1Cc2ccccc2N1C(=O)c1cc2c(=O)n3ccccc3nc2n1C (stereo not drawn),> 79 µM (inactive)
3,COc1cc(OC)cc(-c2cc3nc(C)c(CCC(=O)Nc4nc(C)cs4)c(C)n3n2)c1,4.8 µM
4,Cc1nc2c(c(=O)n1CCC1=CCCCC1)c1nc3ccccc3nc1n2/N=C/c1ccccc1,10.5 µM (inactive)
5,Cn1nc(C(=O)Nc2nc(-c3ccccn3)cs2)c2ccccc2c1=O,6.13 µM
6,CCOC(=O)C1CCN(c2cc3c(cc2NC(=O)c2ccccc2Cl)n(C)c(=O)n3C)CC1,5.6 µM
7,CC(=O)c1ccc(N2CCN(C(=O)c3cc(-c4cccnc4)nc4ccc(Br)cc34)CC2)cc1,3.78 µM
8,COc1ccc(-c2cc(NC(C)=O)c3ncc(-c4ccc(OC)c(OC)c4)n3c2)cc1OC,> 79 µM (inactive)
9,COc1ccc(N(CC(=O)Nc2cccc(C(C)=O)c2)S(=O)(=O)c2ccc(NC(C)=O)cc2)cc1,3.03 µM
10,CC1(c2ccccc2)NC(=O)N(CC(=O)Nc2cccc(/C=C/c3ccccn3)c2)C1=O (stereo not drawn),9.76 µM
11,O=C(C[C@@H]1C/C=C/CC[C@@H](Cc2ccc(F)cc2)C(=O)O[C@@H](c2ccccc2)CNC1=O)NCCO,10.9 µM (inactive)
12,Cc1nnc2ccc(-c3cccc(NC(=O)c4ccc(Cl)nc4)c3)nn12,2.62 µM
13,CC(=O)c1ccc(-c2cnc3c(NC=O)cc(-c4ccc(C(=O)NC5CC5)cc4)cn23)cc1,3.38 µM
14,CCOc1ccccc1NC(=O)c1oc2ccccc2c1NC(=O)C1CCCO1 (stereo not drawn),4.13 µM
15,COCCn1nnnc1CN(CCc1ccccc1)Cc1cc2cc(OC)ccc2[nH]c1=O,5.12 µM
16,Cc1ccc(C=NNc2nc3c([nH]2)c(=O)n(C)c(=O)n3C)cc1,3.93 µM
17,O=C(N/N=C/c1ccncc1)c1ccc(COc2cccc3cccnc23)cc1,25.3 µM (inactive)
18,CC(=O)c1cccc(-c2cnc3c(NC=O)cc(-c4ccccc4F)cn23)c1,7.66 µM
19,CC(=O)c1cccc(-c2cnc3c(NC=O)cc(-c4cccc(C(=O)N(C)C)c4)cn23)c1,14.9 µM (inactive)
20,COc1cccc(/C=N/NC(=O)c2ccncc2)c1OC(=O)c1ccc(Br)cc1,15.4 µM (inactive)
21,Cc1ccc(C(C(=O)NCc2ccccc2)N(Cc2ccco2)C(=O)c2snc(C(N)=O)c2N)o1 (stereo not drawn),1.8 µM
22,CCOC(=O)N1CCN(C(=O)CSc2nc3ccccc3c(=O)n2-c2ccccc2)CC1,18.8 µM (inactive)
23,CCN(CC)C(=O)c1[nH]cnc1C(=O)NCC(=O)OCc1ccccc1,6.88 µM
24,CCOc1ccc2ccccc2c1C(=O)N[C@@H]1C(=O)N2[C@@H]1SC(C)(C)[C@@H]2C(=O)O,24.4 µM (inactive)

row,Structure (SMILES),IC50
1,COC(=O)c1cc(C(=O)OCC(=O)N2c3ccccc3NC(=O)C2(C)C)cc([N+](=O)[O-])c1,6.28 µM
2,c1cncc(-c2nc(NCC3COc4ccccc4O3)c3ccccc3n2)c1 (stereo not drawn),> 79 µM (inactive)
3,COc1ccc(-c2cc(C(=O)N(C)Cc3ccc(OC)c(OC)c3OC)c3ccccc3n2)cc1OC,4.04 µM
4,O=C(c1cc(-c2cccnc2)nc2ccc(Br)cc12)N1CCN(c2ncccn2)CC1,3.6 µM
5,COc1cc(C(=O)N/N=C/c2ccc(OC(=O)c3cccc(C)c3)c(OC)c2)ccc1O,3.16 µM
6,COc1ccccc1NC(=O)c1cc(-c2ccc(OC)c(OC)c2)nc2ccccc12,4.06 µM
7,COC(=O)c1ccc(OCC(=O)Nc2ccccc2C(=O)NC2CC2)cc1,22.6 µM (inactive)
8,Cc1cccc(NC(=O)c2cc(-c3ccco3)nc3ccccc23)n1,8.15 µM
9,Cc1ccc(-c2nn3c(-c4ccco4)nnc3c3ccccc23)cc1S(=O)(=O)NCC1CCCO1 (stereo not drawn),10.6 µM (inactive)
10,COc1cc(-c2cc(NC(C)=O)c3ncc(-c4ccccc4)n3c2)cc(OC)c1OC,6.75 µM
11,CCN(CC)S(=O)(=O)c1ccc(N2CCOCC2)c(NC(=O)c2cc(-c3ccccn3)nc3ccccc23)c1,1.34 µM
12,CC(=NO)C1CCC2C3CCC4CC(=NO)CCC4(C)C3C(C)(O)CC12C (stereo not drawn),> 79 µM (inactive)
13,Cc1nc(NC(=O)c2cc3c(C)nn(-c4ccccc4)c3s2)sc1C(=O)Nc1ccccc1,2.7 µM
14,COc1ccc(-c2nn3c(-c4ccco4)nnc3s2)cc1OC,12.3 µM (inactive)
15,COc1ccccc1NC(=O)COc1ccc(/C=N/NC(=O)c2cccnc2)cc1,9.9 µM
16,COc1ccc(CCn2c(=O)c3cccnc3n(Cc3ccc([N+](=O)[O-])cc3)c2=O)cc1OC,1.22 µM
17,CC(C)(C)OC(=O)NCC12C=CC(O1)C1C(=O)N(Cc3ccccc3)C(=O)C12 (stereo not drawn),2.91 µM
18,CC(=O)c1cccc(Nc2nc3ccccc3n3cnnc23)c1,3.87 µM
19,COc1ccc(OC)c(NC(=O)c2sc3ncnc(N4CCN(c5ccccn5)CC4)c3c2C)c1,16.2 µM (inactive)
20,CCOCc1c(C(=O)NC2=Nc3ccccc3NC(CC)=C2C(=O)OCC)oc2ccccc12,> 79 µM (inactive)
21,O=C(CSc1nnc(-c2ccccc2)n1Cc1ccccc1)NNC(=O)c1ccccc1O,4.2 µM
22,CC(=O)Nc1cccc(-c2cc(NC=O)c3ncc(-c4ccc(C(C)=O)cc4)n3c2)c1,6.5 µM
23,COc1ccc(-c2ccc3c(c2)S(=O)(=O)c2cccc(C(=O)NC[C@@H]4CCCO4)c2C3=O)cc1OC,4.98 µM
24,O=C(NCC(=O)N(Cc1cccs1)C(C(=O)NC1CCCC1)c1ccco1)c1cccs1 (stereo not drawn),6.37 µM

row,Structure (SMILES),IC50
1,COc1cc(-c2cc(NC=O)c3ncc(-c4ccc(C(C)=O)cc4)n3c2)ccc1O,3.61 µM
2,COc1cc(NC(=O)c2cc3c(C)nc4ccccc4c3o2)cc(OC)c1OC,3.36 µM
3,O=C(NC1CCCCC1)C(c1ccc2ncccc2c1)N(Cc1cccs1)C(=O)c1cccs1 (stereo not drawn),1.96 µM
4,Cc1ccc(NC(=O)c2cc(-c3cccs3)nc3ccccc23)nc1,8.28 µM
5,O=C(CNC(=O)c1nc[nH]c1C(=O)NCC(=O)OCc1ccccc1)OCc1ccccc1,0.38 µM
6,CCC1(CC)NC(=O)N(CC(=O)OCC(=O)Nc2ccccc2[N+](=O)[O-])C1=O,37.3 µM (inactive)
7,CSc1nc2ccc(S(=O)(=O)Nc3c(C)n(C)n(-c4ccccc4)c3=O)cc2s1,3.1 µM
8,CCn1nc(C(=O)NNC(=O)c2cc(Cl)ccc2OC)c2ccccc2c1=O,30 µM (inactive)
9,CC(C)(C)OC(=O)N1CCC(NC(=O)c2nc[nH]c2C(=O)NCC(=O)OCc2ccccc2)CC1,1.08 µM
10,CCOC(=O)N1CCC(n2c(SCC(=O)N3CCC(C)CC3)nc3ccccc3c2=O)CC1,> 79 µM (inactive)
11,CCC(CC)C(=O)Nc1cc(C)c2c(=O)oc3ccccc3c2n1,2.05 µM
12,O=C(CSc1nnc(Cc2cccs2)n1CCc1ccccc1)N1CCCc2ccccc21,> 79 µM (inactive)
13,CC(=O)Nc1cccc(NC(=O)c2cc(-c3cccnc3)nc3ccc(Cl)cc23)c1,2.24 µM
14,COc1cc(Nc2nc3ccccc3n3nnnc23)cc(OC)c1OC,1.38 µM
15,Cc1cccc(NC(=O)c2nc[nH]c2C(=O)NCCCCNC(=O)c2[nH]cnc2C(=O)Nc2cccc(C)c2)c1,1.39 µM
16,CCOC(=O)c1ccc(-c2ccc3ncnc(NCc4csc(C)n4)c3c2)o1,> 79 µM (inactive)
17,COC(=O)c1cc2ccc(OC)cc2c2cc(OC)c(OC)cc12,> 79 µM (inactive)
18,CC(C)=NNc1cnnc2ccc([N+](=O)[O-])cc12,4.85 µM
19,O=C(c1cc2nc(-c3ccccc3)cc(-c3ccccc3)n2n1)N1CCN(C(=O)c2ccco2)CC1,1.25 µM
20,COc1ccc(-c2oc(=O)c3cc(OC)c(OC)cc3c2C#CCCO)cc1,6.71 µM
21,COc1nc(N/N=C/c2cc3c(cc2Br)OCO3)nc(N2CCOCC2)n1,11.9 µM (inactive)
22,CCc1nnc(NC(=O)CCC(=O)N2CCN(C3c4ccccc4-c4ccccc43)CC2)s1,12.9 µM (inactive)
23,CC(=O)Nc1cccc(-c2cc(NC(C)=O)c3ncc(-c4ccccc4)n3c2)c1,13.7 µM (inactive)
24,Cc1nn(-c2ccccc2)nc1C(=O)Nc1cccc(C(=O)NC2CC2)c1,4.37 µM

row,Structure (SMILES),IC50
1,CCN(CC)C(=O)c1ccc2c3c(cccc13)C(=O)N(CCc1ccc(OC)c(OC)c1)C2=O,> 79 µM (inactive)
2,Cc1ccccc1C(C(=O)NCc1ccccc1)N(Cc1ccco1)C(=O)c1ccccn1 (stereo not drawn),> 79 µM (inactive)
3,COc1ccc(Cl)cc1NC(=O)CCS(=O)(=O)c1cc2c(cc1C)NC(=O)CO2,8.29 µM
4,CCc1nc(N2CCN(C(=O)c3ccco3)CC2)c2oc3ccccc3c2n1,> 79 µM (inactive)
5,CCOc1ccc(S(=O)(=O)N(C)CCO)cc1-c1nc2c(C(C)(C)C)nn(C)c2c(=O)[nH]1,5.22 µM
6,COC(=O)c1ccccc1NC(=O)/C=C/c1cc(OC)c(OC)c(OC)c1,10.9 µM (inactive)
7,COc1cc(-c2cc(NC(C)=O)c3ncc(-c4ccc(F)cc4)n3c2)cc(OC)c1OC,> 79 µM (inactive)
8,CC(=O)Nc1cc(-c2cccc(C(=O)N(C)C)c2)cn2c(-c3ccc(C(C)=O)cc3)cnc12,7.78 µM
9,CCCc1cc(N2CCN(C(=O)c3ccco3)CC2)n2c(nc3ccccc32)c1C#N,> 79 µM (inactive)
10,C[C@@H]1CN([C@H](C)CO)S(=O)(=O)c2ccc(C#Cc3ccccc3F)cc2O[C@H]1CN(C)C(=O)c1ccc2c(c1)OCO2,> 79 µM (inactive)
11,COc1cccc(/C=N/NC(=O)c2oc3nc(-c4ccccc4)cc(-c4ccco4)c3c2N)c1,5.87 µM
12,Cc1ccc2nsnc2c1S(=O)(=O)N(Cc1ccco1)Cc1cc2cccc(C)c2[nH]c1=O,13.2 µM (inactive)
13,COc1ccc(-c2cc3nc(-c4ccccc4)cc(N4CCN(C(=O)c5ccoc5)CC4)n3n2)cc1,4.91 µM
14,CCOC(=O)C1CCCN(C(=O)CCC(=O)Nc2ccc3nc(N4CCOCC4)cc(C)c3c2)C1 (stereo not drawn),> 79 µM (inactive)
15,COc1cc(/C=C/c2nc(-c3ccccc3O)n[nH]2)cc(OC)c1OC,> 79 µM (inactive)
16,Cc1ccc(Cn2c(CCNc3nc(-c4ccc(Cl)c([N+](=O)[O-])c4)cs3)nc3cc(C(=O)NCCCO)ccc32)cc1,1.48 µM
17,Cc1ncc(CO)c2c1Oc1nc(-c3ccccc3)nc(SCC(=O)N3CCCCC3)c1C2,> 79 µM (inactive)
18,COc1ccc(Cl)cc1-c1nc(-c2ccc(NC(=O)c3cccs3)cc2)no1,> 79 µM (inactive)
19,CC(C)(C)C(=O)Nc1ccc(C(=O)N/N=C/c2ccccc2OC(=O)c2ccccc2)cc1,6.72 µM
20,O=C(Cn1nc(C(=O)O)c2ccccc2c1=O)c1c[nH]c2ccccc12,3.53 µM
21,Cc1ccccc1NP(=O)(Oc1ccccc1F)Oc1ccccc1F,> 79 µM (inactive)
